From a melting point compilation (Tetko et al.; mined from patent text by program, amines drawn as free bases though some values may be those of a salt)

| melting point [°C] | Compound |
| --- | --- |
| 54 | CCN(CC)Cc1c(Cl)ccc2cc(Cl)cnc12 |
| 231 to 233 | O=c1c2cc(F)c(N3CCCC3)nc2n(-c2ccc(C(F)(F)F)cc2)c(=O)n1OCc1ccccc1 |
| 160 to 170 | CCCN1c2ccccc2C(=O)N(CC(=O)O)c2cc(Cc3c[nH]c4ccccc34)ccc21 |
| 164 to 165 | Cc1nc2cccc(CCN3CCC(c4noc5cc(F)ccc45)CC3)c2c(=O)[nH]1 |
| 173 to 174 | CC(=O)Nc1cccc(Sc2c(Cc3cccc4ccccc34)sc3c2c(=O)n(C)c(=O)n3CC(C)C)c1 |
| 92 to 94 | CN(C)CCCN1c2ccccc2C(c2ccccc2F)=Nc2cccnc21 |
| 144 to 145 | Cc1oc(-c2ccccc2)nc1COc1ccc(COc2ncccc2CC(=O)O)cc1 |
| 177 to 178 | Cc1cc(O)c2c(c1O)C(=O)c1ccccc1C2=O |
| 182 to 184 | CCOC(=O)c1ncc2[nH]c3cccc(Cc4ccccc4Cl)c3c2c1COC |
| 220 | COc1cc(OC)c(-c2cc3ccccc3n2C)cc1C=CC(=O)c1ccc(S(=O)(=O)Nc2cc(C)on2)cc1 |
| 182 to 183 | CCOC(=O)c1c(C)cc2c(c1C)c(=O)n(-c1ccccc1Cl)c(=O)n2C(=O)O |
| 148 to 151 | CCCCCCOc1ccc(C(=O)NCCN(O)C(N)=O)cc1 |
| 210 to 211 | CC(C)(C)c1nc(-c2ncn3c2COC(=O)c2ccccc2-3)no1 |
| 129 to 130 | CCN1C(=O)C(C)(C)C(=O)N(C)c2cc(CN(CCn3ccc4oc(C)cc4c3=O)Cc3ncoc3C)ccc21 |
| 174 | CCOC(=O)C1=C(C)NC(N)=C(C(=O)OCC)C1c1cccc2ccccc12 (stereo not given) |

Second part, the compound before the results:

| Compound | melting point [°C] |
| --- | --- |
| ClC(=NNc1ccccc1)c1ccc(Br)cc1 | 152 to 153 |
| Nc1cccc(Oc2ccc(C(=O)c3cccc(C(=O)c4ccc(Oc5cccc(N)c5)cc4)c3)cc2)c1 | 147 to 149 |
| CN1CCc2c(-c3ccc(Cl)cc3)ccc([N+](=O)[O-])c2C1 | 162 to 163 |
| Cc1coc(Cc2ccc(N)cc2)n1 | 84 to 85 |
| O=C1C=C(c2c[nH]c3ccc(F)cc23)C(=O)N1 | 255 to 265 |
| Cc1nc(C(N)=O)cn1-c1ccc(Cl)cc1 | 138 to 140 |
| N#Cc1cnn(-c2ccc(OC(F)(F)F)cc2Cl)c1Br | 83 |
| O=C(O)c1cc(S(=O)(=O)Cl)cc(S(=O)(=O)Cl)c1O | 185 to 187 |
| Cc1sc(C(=O)O)c2c1-c1c(cnn1Cc1ccccc1)CC2 | 231 to 232 |
| CCS(=O)(=O)c1ccc(C(CC2CCCC2)C(=O)O)cc1 (stereo not given) | 137 to 138 |
| Nc1sc2c(c1C(=O)c1ccc3ccccc3c1)CCN(Cc1ccccc1F)C2 | 183 to 185 |
| O=C(O)c1ccc2c(c1)Sc1ccc(F)cc1C(=O)C2 | 289 to 291 |
| COC(=O)C1CSC(c2cc3ccccc3n2C)=N1 (stereo not given) | 78 to 80 |
| O=CNC(O)C(Cl)(Cl)CCl (stereo not given) | 105 to 109 |
| CCOCCc1c(N=[N+]=[N-])nc(NC(=O)NCC(=O)O)nc1-c1ccccc1 | 160 |
| c1ccc(-c2cnc(-c3ccccc3)s2)cc1 | 102 to 105 |
| C(#Cc1ccsc1)c1cccnc1 | 62 |
| CC(=O)OCC1OC(n2ccc3c(Br)cccc32)C(OC(C)=O)C(OC(C)=O)C1OC(C)=O (stereo not given) | 166 to 167 |
| CC(CO)NC1=NS(=O)(=O)c2cnccc2N1 (stereo not given) | 213 to 216 |
| CCOC(=O)c1cc(NC(C)=O)ccc1O | 135 to 136 |
| O=C(O)c1ccc(CO)cc1O | 179 to 180 |
| COc1ccc(-n2nnc(-c3ccc(F)cc3Cl)c2N)cc1 | 175 to 177 |
| CCC1CCCCN1CCNc1ccnc2cc(Cl)ccc12 (racemic) | 115 to 117 |
| Cc1ncn(-c2cc(F)ccc2C#N)n1 | 117 to 118 |
| COc1ccc(C(=O)Nc2ccc3ccc(Oc4ccc(F)cc4)nc3n2)cc1 | 100 |
